Test systems include CAKI-1; HCT-15; A549; OVCAR-5; UACC-257; T47D; HCT-116; SK-OV-3; MDA-MB-435; 786-0; SK-MEL-5; SF-295; COLO 205; U-251; MOLT-4; NCI-H226; SK-MEL-28; TK-10; A498; Hs-578T.
Common to all, as to experiment: growth of human tumour cells (NCI), 48 h

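Briefly, cells in 96-well plates were exposed to five compound concentrations for 48 h, and endpoints were estimated by linear interpolation. Here, GI50 denotes the concentration required for 50% inhibition of growth.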 Calls of active or inactive are those of the source. No stated cut-off is given here; in the data, active = GI50 up to about 1.1 µM and inactive = higher. Bounds are passed on as bounds.

Consider `N#C/C(C(=O)Nc1ccccc1)=C(/N)N1CCCCC1`, for which the GI50 is > 100 µM (inactive) in the test on CAKI-1; > 100 µM with HCT-15; > 100 µM (inactive) in the test with A549; > 100 µM (inactive) in the test on OVCAR-5; > 100 µM (inactive) in the test on UACC-257; > 100 µM (inactive) with T47D. In addition, the GI50 in the test on HCT-116 is > 100 µM (inactive); with SK-OV-3, > 100 µM (inactive); with MDA-MB-435 it was 84.9 µM (inactive); with 786-0, > 100 µM (inactive); with SK-MEL-5 it was > 100 µM (inactive); in the test on SF-295 it was > 100 µM (inactive). The GI50 with COLO 205, with U-251, in the test with MOLT-4, in the test on NCI-H226 and in the test with SK-MEL-28 was > 100 µM (inactive) throughout.
In the case of `Cc1cc(NS(=O)(=O)c2ccc(/N=N/c3c(Nc4ccccc4)nn(-c4ccc(S(=O)(=O)Nc5ccncn5)cc4)c3C)cc2)no1`, the GI50 with CAKI-1 is > 100 µM (inactive); in the test with HCT-15 it was > 100 µM; with TK-10 it was > 100 µM (inactive); in the test with A549 it was > 100 µM (inactive); in the test with OVCAR-5, > 100 µM (inactive); in the test on UACC-257, > 100 µM (inactive). In addition, the GI50 in the test with T47D, with HCT-116, in the test with SK-OV-3, with MDA-MB-435, with 786-0 and in the test on SK-MEL-5 was > 100 µM (inactive) each time. The GI50 in the test on SF-295, in the test on COLO 205, in the test on U-251, with MOLT-4, in the test with NCI-H226 and in the test with SK-MEL-28 was > 100 µM (inactive) in each case.
With `CCNC(=O)NNc1ncnc2c1c(-c1ccc(Cl)cc1)cn2-c1ccc(C)cc1`, the GI50 in the test with CAKI-1 is 25.4 µM (inactive); in the test with HCT-15 it was 20.5 µM; in the test with TK-10, 34.2 µM (inactive); in the test on A549, 17.7 µM (inactive); with OVCAR-5 it was 18 µM (inactive); in the test with UACC-257, 21.3 µM (inactive). Besides, the GI50 with T47D is 14.6 µM (inactive); in the test on HCT-116, 14.9 µM (inactive); with SK-OV-3, 27.4 µM (inactive); in the test with MDA-MB-435, 17 µM (inactive); in the test on 786-0 it was 18.6 µM (inactive); with SK-MEL-5, 14.7 µM (inactive). For the same molecule, the GI50 in the test with SF-295 was 15.7 µM (inactive); in the test on COLO 205, 15.9 µM (inactive); in the test on U-251, 17.1 µM (inactive); in the test on MOLT-4, 16.4 µM (inactive); in the test with NCI-H226, 20 µM (inactive); in the test on A498 it was 15.7 µM (inactive). Further, the GI50 in the test with SK-MEL-28 was 18.9 µM (inactive).
With `COc1ccc(-n2cnn3c(=O)c4cn[nH]c4nc23)cc1`, the GI50 was > 10 µM (inactive) in the test with TK-10; > 10 µM (inactive) in the test on A549; > 10 µM (inactive) in the test on OVCAR-5; > 10 µM (inactive) with UACC-257; > 10 µM (inactive) in the test with HCT-116; 1.49 µM (inactive) in the test on SK-OV-3. Also, the GI50 in the test with MDA-MB-435, with 786-0, with SK-MEL-5, with SF-295, with U-251 and with MOLT-4 was > 10 µM (inactive) each time. The GI50 with NCI-H226 and in the test with Hs-578T was > 10 µM (inactive) in each case.
In the case of `O=C(NNC(=O)c1c(Cl)c(Cl)c(Cl)c(Cl)c1-c1nc2ccccc2[nH]1)c1ccc(Cl)cc1`, the GI50 was 40.6 µM (inactive) with CAKI-1; 34.4 µM in the test with HCT-15; 45 µM (inactive) in the test with A549; > 100 µM (inactive) in the test on OVCAR-5; 21.7 µM (inactive) in the test with T47D; 46.3 µM (inactive) in the test with HCT-116. In addition, the GI50 in the test on SK-OV-3 is > 100 µM (inactive); in the test on MDA-MB-435, 24 µM (inactive); with 786-0 it was 51.8 µM (inactive); in the test with SK-MEL-5 it was 38.3 µM (inactive); in the test with SF-295, 44.5 µM (inactive); in the test on COLO 205, 32.1 µM (inactive). Further, the GI50 in the test on MOLT-4 is 38.9 µM (inactive); with NCI-H226, 43.4 µM (inactive); in the test with A498, 54.5 µM (inactive); in the test with SK-MEL-28 it was 81.1 µM (inactive).
`N#Cc1c(O)c(/N=N/c2ccccc2F)c(=O)n2c1[nH]c1ccccc12`: the GI50 with HCT-15 is 37.2 µM; with TK-10 it was 55.6 µM (inactive); in the test on A549, 42.5 µM (inactive); in the test on OVCAR-5, 34 µM (inactive); in the test on UACC-257 it was 33.9 µM (inactive); with HCT-116, 26.6 µM (inactive). The GI50 in the test on SK-OV-3 was 50.5 µM (inactive); in the test with MDA-MB-435, 21.6 µM (inactive); in the test with 786-0, 43.7 µM (inactive); with SK-MEL-5 it was 42 µM (inactive); in the test with SF-295, 33 µM (inactive); in the test with COLO 205, 55.1 µM (inactive). Moreover, the GI50 in the test with U-251 was 32.7 µM (inactive); in the test with NCI-H226, 33.7 µM (inactive); in the test with A498, 60.5 µM (inactive); in the test with Hs-578T, 15.4 µM (inactive); in the test on SK-MEL-28 it was 29.4 µM (inactive).
For the molecule `Cc1cc(S(=O)(=O)O)c(NC(=O)C(=O)Cc2cc(=O)oc3cc(O)ccc23)cc1Cl`, the GI50 was > 100 µM (inactive) in the test on CAKI-1; > 100 µM with HCT-15; > 100 µM (inactive) with TK-10; > 100 µM (inactive) in the test with A549; > 100 µM (inactive) in the test with OVCAR-5; > 100 µM (inactive) in the test on UACC-257. The GI50 in the test with HCT-116, in the test on SK-OV-3, with 786-0, in the test on SK-MEL-5, in the test with SF-295 and in the test with COLO 205 was > 100 µM (inactive) in each case. The GI50 with U-251, in the test with MOLT-4, in the test on NCI-H226, with A498 and with SK-MEL-28 was > 100 µM (inactive) each time.
With `COc1cccc(C2CC23C(=O)NC(=O)NC3=O)c1` (stereo not given), the GI50 was > 100 µM (inactive) with CAKI-1; > 100 µM with HCT-15; > 100 µM (inactive) in the test on TK-10; > 100 µM (inactive) in the test with A549; > 100 µM (inactive) in the test on OVCAR-5; > 100 µM (inactive) with UACC-257. Further, the GI50 with HCT-116, in the test with SK-OV-3, with 786-0, in the test on SK-MEL-5, in the test on SF-295 and in the test on COLO 205 was > 100 µM (inactive) each time. In addition, the GI50 in the test with U-251, with MOLT-4, in the test on NCI-H226, in the test with A498 and with SK-MEL-28 was > 100 µM (inactive) each time.
In the case of `O=C1CCC2(c3ccc(F)cc3)Nc3ncncc3N12` (stereo not given), the GI50 in the test on HCT-15 is > 10 µM; with TK-10, > 10 µM (inactive); with A549, > 10 µM (inactive); in the test with OVCAR-5, > 10 µM (inactive); with UACC-257, > 10 µM (inactive); with MDA-MB-435, > 10 µM (inactive). Moreover, the GI50 in the test with 786-0, with SF-295, with U-251, in the test with MOLT-4, in the test on NCI-H226 and in the test on Hs-578T was > 10 µM (inactive) throughout.
Consider `Cc1ccccc1NC(=O)Cc1csc2[n+]1C(=O)/C(=C/c1ccc([N+](=O)[O-])cc1)S2`, for which the GI50 in the test on CAKI-1 is 25.5 µM (inactive); in the test on HCT-15, 24.3 µM; in the test with TK-10, 19.9 µM (inactive); in the test with A549 it was 32 µM (inactive); in the test with OVCAR-5, 37.8 µM (inactive); with UACC-257, 37.1 µM (inactive). Further, the GI50 in the test on T47D was 29.2 µM (inactive); with HCT-116, 37.6 µM (inactive); in the test on SK-OV-3, > 100 µM (inactive); in the test with MDA-MB-435 it was 30.3 µM (inactive); in the test on 786-0, 58.9 µM (inactive); in the test on SK-MEL-5 it was 27.4 µM (inactive). The GI50 in the test on SF-295 is 31.8 µM (inactive); in the test on COLO 205, 36 µM (inactive); in the test with U-251, 29.7 µM (inactive); in the test on MOLT-4, 25.5 µM (inactive); in the test on NCI-H226, 31.2 µM (inactive); in the test with SK-MEL-28 it was 37.7 µM (inactive).
As for `CCc1cc2c(cc1O)CC[C@@H]1[C@@H]2CC[C@]2(C)[C@@H](O)CC[C@@H]12`, the GI50 was 4.67 µM (inactive) in the test with CAKI-1; 4.83 µM with HCT-15; 21.9 µM (inactive) in the test with TK-10; 8.05 µM (inactive) in the test on A549; 20.3 µM (inactive) in the test on OVCAR-5; 8.02 µM (inactive) in the test on UACC-257. The GI50 with T47D is 7.48 µM (inactive); in the test with SK-OV-3 it was 11.7 µM (inactive); with MDA-MB-435, 1.73 µM (inactive); in the test with 786-0 it was 5.21 µM (inactive); with SK-MEL-5, 7.11 µM (inactive); in the test on SF-295, 3.91 µM (inactive). Moreover, the GI50 in the test with COLO 205 was 17.5 µM (inactive); in the test with U-251, 4.76 µM (inactive); with MOLT-4, 5 µM (inactive); in the test with NCI-H226, 12.2 µM (inactive); in the test on A498 it was 18.7 µM (inactive); in the test with SK-MEL-28 it was 5.14 µM (inactive).
Take `N#C/N=C(/N)NCN/C(N)=N\C#N`: the GI50 in the test with CAKI-1 was > 100 µM (inactive); with HCT-15 it was 22.3 µM; in the test with TK-10 it was > 100 µM (inactive); with A549 it was > 100 µM (inactive); with OVCAR-5 it was > 100 µM (inactive); with UACC-257 it was > 100 µM (inactive). Further, the GI50 in the test with HCT-116 is > 100 µM (inactive); in the test with SK-OV-3, > 100 µM (inactive); in the test on 786-0, 23.1 µM (inactive); in the test with SK-MEL-5, > 100 µM (inactive); with SF-295, > 100 µM (inactive); in the test with COLO 205, 64.6 µM (inactive). The GI50 with U-251, in the test with MOLT-4, in the test on NCI-H226, in the test on A498 and in the test with SK-MEL-28 was > 100 µM (inactive) throughout.
